Experimental findings from US5132309A, “2-oxo-3,8-diazaspiro(4,5)decane derivatives, pharmaceutical compositions containing them and process for preparing same” (Richter Gedeon Vegyeszeti Gyar RT, priority 1989, dated 1992) are described below.

Data set [1] deals with apomorphine-induced locomotor hyperactivity and stereotypy. Put plainly: Inhibition of the apomorphine-induced locomotor hyperactivity and stereotypy. The note with it: rat, 2.5 mg/kg oral; for Inhibition of apomorphine-induced LMA as percentage of the control / Inhibition of apomorphine-induced stereotypy as percentage of the control: apomorphine hydrochloride 1 mg/kg s.c.; for Inhibition of apomorphine-induced LMA as percentage of the control: control LMA 100% (438.9 ± 54.7 sec); for Inhibition of apomorphine-induced stereotypy as percentage of the control: control stereotypy 100% (105.0 ± 13.7 sec). The data set is classed as in vivo, male Hannover-Wistar rats. From the text: Apomorphine induces a characteristic syndrome in rats and various animal species which manifests itself in the hyperactivity and stereotypic behavior of the animals [J. Pharm. Pharmacol. 19 627 (1957); J. Neurol. Transm. 40, 97 (1977); J. Psychiat. Res. 11, 1 (1974); J. Pharm. Pharmacol. 25, 1003 (1973); as well as Nature 263, 338 (1976)].
Male Hannover-Wistar rats weighing 160 to 180 g were used in these examinations. The test compounds were suspended in a 2% Tween 80 solution and diluted to the desired concentration by adding distilled water. The corresponding dose was administered to rats in a volume of 5 ml/kg. The control group was treated with the above solution containing no test substance.
One hour following the treatment with 2.5 mg/kg oral dose of the test compound, the rats were subcutaneously treated with 1 mg/kg of apomorphine hydrochloride.
At 15 minutes after administration of apomorphine, the animals were placed in a 5-channel behavior-observing device controlled by a microprocessor and the coordinated and stereotypic motion of the animals were measured for 15 minutes. Chlozapine (chemically 8-chloro-11-(4-methyl-1-piperazinyl)-5H-dibenzo[b,e][1,4]diazepine) was used in a dose of 2.5 mg/kg as reference drug. The results are given as percentages of the control for both motion types.

A short description of data set [2]: Cataleptogenic (catalepsy-inducing) effect. Also on record: species or system male Wistar rats. The note with it: in vivo; rat; oral; hourly for 6 hours.
Data set [3] has as its system hypoxic memory damage. Put plainly: Inhibition of the hypoxic damage of the memory (nootropic effect), conditioned avoidance in Shuttle-box. The data set is classed as in vivo, male spontaneously (genetically) hypertensive rats. The note with it: rat, hypoxia 6% oxygen. The source says:
Male, spontaneously (genetically) hypertensive rats weighing 210 to 230 g were used in these examinations. The active avoiding behavior was developed in a 6-channel automated Shuttle-box by a training consisting of 30 cycles during 3 days. Within a single cycle an intermittent light stimulus of 1 Hz frequency for 15 seconds as conditioned stimulus and an electric stimulus of 0.8 mA for 10 seconds as unconditioned stimulus were used with an intersignal time of 15 seconds.
On the 4th day, one hour before the experiment the animals were treated with a 10 mg/kg oral dose of the test compounds. Two control groups were used in these examinations, one of which was treated with placebo whereas the other one was treated with placebo and exposed to hypoxia. Piracetam (chemically 2-oxo-1-pyrrolidineacetic acid amide) and dihydroergotoxine were used as reference drugs. The performance of the animals was examined under hypoxic conditions in such a way that the boxes were flown through at a rate of 200 ml/min/box with a gaseous mixture containing 6% by volume of oxygen and 94% by volume of nitrogen. The number of the conditioned avoidance responses (as abbreviated hereinafter: CAR) was counted. The protective effect of the compounds against the hypoxic memory damage was calculated by using the following formula: [formula] wherein
protective effect means the effect inhibiting the hypoxic memory damage expressed as percentage; and
CAR x means the average value of the number of conditioned responses in the animal group given.
The protective effect of the compounds against the hypoxic memory damage expressed as percentage of the control is shown in Table 2.

The test system of data set [4] is hypobaric hypoxia. Put plainly: Inhibition of the hypobaric hypoxia (survival time). Format: in vivo, male spontaneously hypertensive rats. The note with it: for ED50: po, 1 h, read-out: Protection against hypobaric hypoxia, ED50. As for the experimental part:
Male, spontaneously hypertensive rats weighing 200 to 220 g were used in these investigations. Groups consisting of 3 animals each were placed into a desiccator of 6 liters by volume, the pressure was decreased to 170 Hgmm (22.66 kPa) within 20 seconds and continuously maintained at the same level. One hour before the examination, the animals were treated with various oral doses of the test compounds. The ED50 values (i.e. the doses prolonging the survival time of the test animals by 50% in comparison to that of the control group treated with placebo) were determined and summarized in Table 3.

Data set [5] has as its system triethyl tin chloride-induced cerebral edema. Put plainly: Inhibition of the cerebral (brain) edema induced by triethyl tin chloride. The data set is classed as in vivo, male Hannover-Wistar rats. The note with it: rat, TET 2.5 mg/kg daily for 5 days. As to the method: The cerebral edema-inhibiting effect of the compounds was investigated by the following method [Ann. Pharm. Fr. 42, 431 (1984)].
A group consisting of 7 male Hannover-Wistar rats weighing 180 to 200 g were daily treated with 2.5 mg/kg of triethyl tin chloride (hereinafter TET) for 5 days to induce a cerebral edema. [TET (Merck-Schuchardt, Darmstadt, FRG) was dissolved in distilled water under stirring and the animals were orally treated with the stirred solution daily at 7 a.m.].
The reference and test compounds were homogenized in a 0.5% by weight carboxymethylcellulose solution by using an Ultra Turrax stirrer and the stirring was continued during the administration, too. These compounds were orally given first 1 hour, then 6 hours after the TET treatment in a volume of 0.5 ml/100 g of body-weight in both cases. The control group received the solvent of TET (i.e. distilled water) and the carrier of the compounds (i.e. 0.5% by weight carboxymethylcellulose solution) at the same intervals and volumes as given above.
On the 5th day of treatments, 2 hours following the last administration of the test compound, the animals were decapitated, the whole brain was rapidly taken out, washed with cold, 0.9% by weight sodium chloride solution and the moisture was removed by filter paper. The wet weights of the brains were weighed with an accuracy of one tenth mg and placed onto an aluminum foil previously weighed. Subsequently, the brains were dried at 90° C. for 92 hours, then the total (gross) weight (i.e. the dry brain weight together with the weight of the aluminum foil) was determined. The water content of the brain and the change thereof, respectively, were calculated from the difference of the wet and dry brain weight. The change was expressed as percentage of the protection as follows: [formula] wherein (TET-Ko) means the mean water content (%) of the brain of animals treated with TET and carrier;
(TET-V) means the mean water content (%) of the brain of animals treated with TET and test compound;
(Veh-Ko) means the mean water content (%) of the brain of animals treated with distilled water and carrier.
The deviations of changes in the water content and dry weight of the brain were compared by using Student's "t" trial. Also here, piracetam and dihydroergotoxine were used as reference drugs.

Read-outs that look alike come from different tables or passages of the source.

What is called ED50 is the midpoint of the dose-response relation. Turning to `CN1C(=O)OC2(CCN(CCC=C(c3ccc(F)cc3)c3ccc(F)cc3)CC2)C1(C)O.Cl` (stereo not drawn) [A, 8-[4,4-bis(4-fluorophenyl)-3-butenyl]-3,4-dimethyl-4-hydroxy-2-oxo-1-oxa-3,8-diazaspiro[4,5]decane hydrochloride], in data set [1], the “Inhibition of apomorphine-induced LMA as percentage of the control” value is given as -40 percentage of the control and the “Inhibition of apomorphine-induced stereotypy as percentage of the control” value is reported as 0 percentage of the control. This compound also had an ED50 at 6 h in data set [2] greater than 300 mg/kg.
Regarding `CC1(O)N(Cc2ccccc2)C(=O)OC12CCN(CCC=C(c1ccc(F)cc1)c1ccc(F)cc1)CC2.Cl` (stereo not drawn) [B, 3-benzyl-8-[4,4-bis(4-fluorophenyl)-3-butenyl]-4-hydroxy-4-methyl-2-oxo-1-oxa-3,8-diazaspiro[4,5]decane hydrochloride], in data set [1], the “Inhibition of apomorphine-induced LMA as percentage of the control” value is -25 percentage of the control and the “Inhibition of apomorphine-induced stereotypy as percentage of the control” value was “+15 percentage of the control”. This compound also returned a median effective dose (ED50) at 6 h in data set [2] greater than 300 mg/kg.
As to `CC(C)(C)N1C(=O)OC2(CCN(CCC=C(c3ccc(F)cc3)c3ccc(F)cc3)CC2)C1(C)O.Cl` (stereo not drawn) [C, 3-tert-butyl-8-[4,4-bis(4-fluorophenyl)-3-butenyl]-4-hydroxy-4-methyl-2-oxo-1-oxa-3,8-diazaspiro[4,5]decane hydrochloride], in data set [3] (10 mg/kg p.o.), the Protection against amnesia is on record as 64%. For the same compound, in data set [4] (rat, 170 Hgmm, dose prolonging survival time by 50% vs placebo control), the ED50 was determined as 23.7 mg/kg. For the same compound, the “Protection (brain water content, cerebral edema)” value in data set [5] (dose 25 umol/kg oral) is given as 97.9%; in data set [5] (dose 50 umol/kg oral), 102.0%; in data set [5] (dose 100 umol/kg oral), 88.1%.
Regarding `CN1CCN(C2=Nc3cc(Cl)ccc3Nc3ccccc32)CC1` [Clozapine, 8-chloro-11-(4-methyl-1-piperazinyl)-5H-dibenzo[b,e][1,4]diazepine, reference compound], in data set [1], the “inhibition of stereotypy (in words)” value was “did not inhibit the stereotypy”, the “Inhibition of apomorphine-induced LMA as percentage of the control” value was -25 percentage of the control and the “Inhibition of apomorphine-induced stereotypy as percentage of the control” value was “+11 percentage of the control”. The same compound displayed an ED50 at 6 h in data set [2] of 31.9 mg/kg.
In the case of `COc1ccc(CCN2C(=O)OC3(CCN(CCC=C(c4ccc(F)cc4)c4ccc(F)cc4)CC3)C2(C)O)cc1OC.O=C(O)/C=C\C(=O)O` (stereo not drawn) [D, 8-[4,4-bis(4-fluorophenyl)-3-butenyl]-3-[2-(3,4-dimethoxyphenyl)ethyl]-4-hydroxy-4-methyl-2-oxo-1-oxa-3,8-diazaspiro[4,5]decane maleate], the “Protection (brain water content, cerebral edema)” value in data set [5] (dose 100 umol/kg oral) stood at 102.2%.
On to `CC1(O)NC(=O)OC12CCN(CCC=C(c1ccc(F)cc1)c1ccc(F)cc1)CC2.Cl` (stereo not drawn) [E, 8-[4,4-bis(4-fluorophenyl)-3-butenyl]-4-hydroxy-4-methyl-2-oxo-1-oxa-3,8-diazaspiro[4,5]decane hydrochloride], for which the “Protection (brain water content, cerebral edema)” value in data set [5] (dose 100 umol/kg oral) stood at 114.3%.
The compound `NC(=O)CN1CCCC1=O` [PIR, 2-oxo-1-pyrrolidineacetic acid amide] had a Protection against amnesia in data set [3] (500 mg/kg p.o.) of 85%. Moreover, in data set [4] (Rattus norvegicus), the ED50 stood at 293 mg/kg. In addition, the “Protection (brain water content, cerebral edema)” value in data set [5] (dose 100 umol/kg oral) came out at 16.7%.
dihydroergotoxine [DHE] yielded a Protection against amnesia in data set [3] (10 mg/kg p.o.) of 63%. Moreover, the “survival achieved at the high dose of DHE” value in data set [4] (rat, 50.0 mg/kg p.o., hypobaric hypoxia) stood at 40%. Besides, in data set [4] (rat, 170 Hgmm, dose prolonging survival time by 50% vs placebo control, 60 min), the “Protection against hypobaric hypoxia, ED50” value was determined as 50.0 mg/kg p.o. In data set [5] (dose 30 mg/kg oral), the “Protection (brain water content, cerebral edema)” value was found to be 25.6%.
